Results published in patent US20060183189A1, “Regulatable gene expression in mammalian cells and mammals” (priority 2003, published 2006).

Columns and labels:
[1] = biological target: T1, AlkS (Ectopseudomonas oleovorans, UniProt P17051); assay: AlkS-based regulatable SEAP expression in CHO-K1 cells; type: cell-based, Pseudomonas putida (oleovorans); settings: CHO-K1 cells transfected with AlkS and PSV40 promoter with 8 OP repeats; upon addition of regulating compound
T1 construct: expressed in transfected cells; host or cells: CHO-K1
Text: A regulatable expression system responsive to liquid or gaseous inducers based on bacterial elements is constructed by PCR-cloning the Pseudomonas putida (oleovorans)-derived RTF AlkS (Smiths et al., 2001. Plasmid 46, 16-24) into the mammalian expression vector pEF6V5-His TOPO (Invitrogen, Carlsbad, Calif.). The responsive promoter is constructed by cloning 8 repeats of the AlkS-specific OP site downstream of the simian virus 40 promoter PSV40 followed by a reporter gene, the secreted alkaline phosphatase SEAP.
Transfection of the plasmids encoding AlkS and the responsive promoter controlling SEAP expression in CHO-K1 cells results in SEAP expression levels typical for PSV40-driven constitutive expression.

[2] = biological target: T2, AlcR (Emericella nidulans, UniProt P21228); assay: Gas-phase controlled SEAP expression of stable CHO-K1-derived cell line in a bioreactor; type: cell-based, Aspergillus nidulans; settings: 2.5 L bioreactor, gassing in air containing 340 ppm acetaldehyde, then 40 ppm; shut down by sparging with pure air
T2 construct: excising alcR (EcoRI/SalI) from an alcR cDNA containing vector; expressed in transfected cells; host or cells: CHO-K1
Text: A stable CHO-K1-derivative engineered for acetaldehyde-inducible SEAP expression is cultivated in a bioreactor. […] The specific SEAP productivities (μU/10^6 cells/h) are indicated over time (h).
A CHO-K1-derived cell line is constructed for gas-inducible expression of a secreted alkaline phosphatase (SEAP) by stable transfection/transduction with plasmid pWW192 (see Example 1) and a pWW506-based viral particle (see Example 4).

T1 sequence (P17051 whole entry): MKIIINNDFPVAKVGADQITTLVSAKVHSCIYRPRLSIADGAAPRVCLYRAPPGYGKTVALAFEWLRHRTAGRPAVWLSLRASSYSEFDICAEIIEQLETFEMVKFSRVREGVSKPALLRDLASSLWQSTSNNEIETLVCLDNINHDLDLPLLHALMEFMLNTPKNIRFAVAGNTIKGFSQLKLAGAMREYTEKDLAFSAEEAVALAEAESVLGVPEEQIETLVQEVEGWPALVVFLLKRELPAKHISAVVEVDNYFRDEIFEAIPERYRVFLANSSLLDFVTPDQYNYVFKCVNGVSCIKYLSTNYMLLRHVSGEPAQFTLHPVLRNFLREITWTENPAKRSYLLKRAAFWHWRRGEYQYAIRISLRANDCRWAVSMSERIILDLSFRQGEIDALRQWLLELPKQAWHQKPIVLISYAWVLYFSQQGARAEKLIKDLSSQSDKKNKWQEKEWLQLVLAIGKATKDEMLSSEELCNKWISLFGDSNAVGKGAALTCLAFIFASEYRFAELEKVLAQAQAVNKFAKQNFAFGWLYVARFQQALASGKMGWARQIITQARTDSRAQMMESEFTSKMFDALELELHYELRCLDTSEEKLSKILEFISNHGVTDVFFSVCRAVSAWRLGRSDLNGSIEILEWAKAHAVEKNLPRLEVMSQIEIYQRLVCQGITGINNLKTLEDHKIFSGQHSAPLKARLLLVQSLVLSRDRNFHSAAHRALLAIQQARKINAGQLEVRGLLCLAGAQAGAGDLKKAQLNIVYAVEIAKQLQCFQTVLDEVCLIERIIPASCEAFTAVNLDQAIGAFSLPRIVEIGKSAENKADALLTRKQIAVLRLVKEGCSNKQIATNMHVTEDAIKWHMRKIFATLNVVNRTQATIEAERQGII
T2 sequence (P21228 whole entry): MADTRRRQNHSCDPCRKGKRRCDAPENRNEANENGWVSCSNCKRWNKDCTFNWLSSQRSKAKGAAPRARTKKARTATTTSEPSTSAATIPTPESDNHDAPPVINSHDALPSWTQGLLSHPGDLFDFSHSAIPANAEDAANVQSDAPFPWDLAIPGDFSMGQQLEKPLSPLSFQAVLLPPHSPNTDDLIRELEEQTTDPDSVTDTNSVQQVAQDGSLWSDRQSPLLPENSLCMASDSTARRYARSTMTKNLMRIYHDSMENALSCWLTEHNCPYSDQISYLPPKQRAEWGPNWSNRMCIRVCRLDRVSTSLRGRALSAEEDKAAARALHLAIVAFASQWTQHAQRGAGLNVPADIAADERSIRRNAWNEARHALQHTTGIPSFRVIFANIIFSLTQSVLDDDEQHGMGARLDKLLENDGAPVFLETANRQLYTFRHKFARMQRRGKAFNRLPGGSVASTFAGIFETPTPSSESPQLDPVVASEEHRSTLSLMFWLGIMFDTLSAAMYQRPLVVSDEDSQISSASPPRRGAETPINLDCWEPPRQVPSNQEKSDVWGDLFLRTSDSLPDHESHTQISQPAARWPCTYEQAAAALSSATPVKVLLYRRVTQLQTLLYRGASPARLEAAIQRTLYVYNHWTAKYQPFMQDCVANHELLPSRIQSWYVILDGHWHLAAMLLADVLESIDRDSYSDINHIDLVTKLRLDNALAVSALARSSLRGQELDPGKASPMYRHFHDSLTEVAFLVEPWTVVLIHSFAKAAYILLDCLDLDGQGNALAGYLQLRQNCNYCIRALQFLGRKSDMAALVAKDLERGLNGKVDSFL

O=C(C1CC1)C1CC1 [dicyclopropylketone]
SEAP expression [1]: decreases in a dose-dependent manner

CCOC(C)=O [ethyl acetate]
SEAP expression [1]: decreases in a dose-dependent manner

CC=O [acetaldehyde]
SEAP expression [2]: induced

CCOCC [ethyl ether]
SEAP expression [1]: decreases in a dose-dependent manner
